Measured values published in patent US20130310256A1, “HERBICIDAL COMPOSITIONS COMPRISING 4-AMINO-3-CHLORO-5-FLUORO-6-(4-CHLORO-2-FLUORO-3-METHOXYPHENYL) PYRIDINE-2-CARBOXYLIC ACID OR A DERIVATIVE THEREOF AND VLCFA AND LIPID SYNTHESIS INHIBITING HERBICIDES” (DOW AGROSCIENCES LLC, priority 2008, published 2013).
Several values for one entry are separate records, joined by “and”; a condition that tells them apart may be missing. Equal values may be shown once.

Experiments:
ECHCG = experiment: Example II: in-water applied weed control, transplanted paddy rice, greenhouse; format: in vivo, Echinochloa crus-galli (L.) Beauv. (barnyardgrass)
Method: Weed seeds or nutlets of the desired test plant species were planted in puddled soil (mud) prepared by mixing a shredded, non-sterilized mineral soil (50.5 percent silt, 25.5 percent clay, and 24 percent sand, with a pH of about 7.6 and an organic matter content of about 2.9 percent) and water at a 1:1 volumetric ratio. The prepared mud was dispensed in 365 mL aliquots into 16-ounce (oz.) non-perforated plastic pots with a surface area of 86.59 square centimeters (cm^2) leaving a headspace of 3 centimeters (cm) in each pot. Mud was allowed to dry overnight prior to planting or transplanting. Rice seeds were planted in Sun Gro MetroMix® 306 planting mixture, which typically has a pH of 6.0 to 6.8 and an organic matter content of about 30 percent, in plastic plug trays. Seedlings at the second or third leaf stage of growth were transplanted into 840 mL of mud contained in 32-oz. non-perforated plastic pots with a surface area of 86.59 cm^2 4 days prior to herbicide application. The paddy was created by filling the headspace of the pots with 2.5 to 3 cm of water. When required to ensure good germination and healthy plants, a fungicide treatment and/or other chemical or physical treatment was applied. The plants were grown for 4-22 days in a greenhouse with an approximate 14 hr photoperiod which was maintained at about 29′C during the day and 26° C. during the night. Nutrients were added as Osmocote® (19:6:12, N:P:K+ minor nutrients) at 2 g per 16-oz. pot and 4 g per 32-oz. pot. Water was added on a regular basis to maintain the paddy flood, and supplemental lighting was provided with overhead metal halide 1000-Watt lamps as necessary. The plants were employed for testing when they reached the first through fourth true leaf stage.
Treatments consisted of the acid or esters of 4-amino-3-chloro-5-fluoro-6-(4-chloro-2-fluoro-3-methoxy-phenyl)pyridine-2-carboxylic acid (compound A) each formulated as an SC (suspension concentrate) and various herbicidal components alone and in combination. Forms of compound A were applied on an acid equivalent basis.
The herbicidal components were applied on an active ingredient basis and included very long chain fatty acid (VLCFA) synthesis-inhibiting and fatty acid/lipid synthesis-inhibiting herbicides acetochlor (technical grade material), acetochlor+dichlormid formulateded as Topnotch®, pretilachlor (technical grade material), butachlor formulated as Butachlor EC, fentrazamide formulated as Fentrazamide EC, thiobencarb formulated as Bolero® 8EC, cafenstrole formulated as Himeadow® WP or Lapost® Flowable, benfuresate formulated as Full Shot®, anilofos (technical grade material), mefenacet (technical grade material), molinate (technical grade material), and thenylchlor (technical grade material).
Treatment requirements for each compound or herbicidal component were calculated based upon the rates being tested, the concentration of active ingredient or acid equivalent in the formulation, an application volume of 2 mL per component per pot, and an application area of 86.59 cm^2 per pot.
For formulated compounds, a measured amount was placed in an individual 100 or 200 mL glass vial and was dissolved in a volume of 1.25% (v/v) Agri-Dex® crop oil concentrate to obtain application solutions.
For technical grade compounds, a weighed amount was placed in an individual 100 to 200 mL glass vial and was dissolved in a volume of acetone to obtain concentrated stock solutions. […] The concentrated stock solutions obtained were diluted with an equivalent volume of an aqueous mixture containing 2.5% (v/v) crop oil concentrate so that the final application solutions contained 1.25% (v/v) crop oil concentrate.
Applications were made by injecting with a pipetter appropriate amounts of the application solutions, individually and sequentially, into the aqueous layer of the paddy. Control plants were treated in the same manner with the solvent blank. […]

CYPRO = experiment: as above; format: in vivo, Cyperus rotundus L. (purple nutsedge)
How it was run: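 Transplanted rice and weeds at the first to fourth true leaf stage in flooded mud pots (pH ~7.6 soil), greenhouse ~29/26 °C, 14 h photoperiod. Compound A (acid equivalent) and VLCFA/lipid-synthesis herbicides (active ingredient) injected into the paddy water in 1.25% crop oil concentrate. Injury scored visually at ~3 weeks versus untreated, 0–100%.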

[1] = 52.5 gai/ha (Himeadow WP), 21 DAA
[2] = 105 gai/ha (Himeadow WP), 21 DAA

CCS(=O)(=O)Oc1ccc2c(c1)C(C)(C)CO2 [Benfuresate, 2,3-dihydro-3,3-dimethyl-5-benzofuranyl ethanesulfonate]
Visual Weed Control ECHCG Obs (ECHCG; 75 gai/ha (Full Slot), 22 DAA): 0% | Visual Weed Control ECHCG Obs (ECHCG; 150 gai/ha (Full Slot), 22 DAA): 0%

CCN(CC)C(=O)n1cnc(S(=O)(=O)c2c(C)cc(C)cc2C)n1 [Cafenstrole, N,N-diethyl-3-[(2,4,6-trimethylphenyl)sulfonyl]-1H-1,2,4-triazole-1-carboxamide]
Visual Weed Control ECHCG Obs (ECHCG; [1]): 20% | Visual Weed Control ECHCG Obs (ECHCG; [2]): 25% | Visual Weed Control CYPRO Obs (CYPRO; [1]): 0% | Visual Weed Control CYPRO Obs (CYPRO; 52.5 gai/ha (Lapost Flowable), 21 DAA): 0% | Visual Weed Control CYPRO Obs (CYPRO; [2]): 0% | Visual Weed Control CYPRO Obs (CYPRO; 105 gai/ha (Lapost Flowable), 21 DAA): 0%

COc1c(Cl)ccc(-c2nc(C(=O)O)c(Cl)c(N)c2F)c1F [Compound A Acid, 4-amino-3-chloro-6-(4-chloro-2-fluoro-3-methoxyphenyl)-5-fluoropyridine-2-carboxylic acid]
Visual Weed Control (%) - 21 DAA ECHCG Obs (ECHCG; 8.75 gae/ha): 0% | Visual Weed Control (%) - 22 DAA ECHCG Obs (ECHCG; 8.75 gae/ha): 0% | Visual Weed Control ECHCG Obs (ECHCG; 8.75 gae/ha, 21 DAA): 0% | Visual Weed Control (%) - 21 DAA ECHCG Obs (ECHCG; 17.5 gae/ha): 0% | Visual Weed Control (%) - 22 DAA ECHCG Obs (ECHCG; 17.5 gae/ha): 15% | Visual Weed Control ECHCG Obs (ECHCG; 17.5 gae/ha, 21 DAA): 0% | Visual Weed Control (%) - 21 DAA ECHCG Obs (ECHCG; 35 gae/ha): 20% | Visual Weed Control (%) - 22 DAA ECHCG Obs (ECHCG; 35 gae/ha): 15% | Visual Weed Control ECHCG Obs (ECHCG; 35 gae/ha, 21 DAA): 20% | Visual Weed Control ECHCG Obs (ECHCG; 42.4 gae/ha, 22 DAA): 30% | Visual Weed Control (%) - 20 DAA CYPRO Obs (CYPRO; 8.75 gae/ha): 0% | Visual Weed Control (%) - 21 DAA CYPRO Obs (CYPRO; 8.75 gae/ha): 0% | Visual Weed Control CYPRO Obs (CYPRO; 8.75 gae/ha, 21 DAA): 0% | Visual Weed Control CYPRO Obs (CYPRO; 17.5 gae/ha, 21 DAA): 20% | Visual Weed Control (%) - 20 DAA CYPRO Obs (CYPRO; 35 gae/ha): 80% and 90%

COc1c(Cl)ccc(-c2nc(C(=O)OCc3ccccc3)c(Cl)c(N)c2F)c1F [Compound A Benzyl Ester, benzyl ester of 4-amino-3-chloro-5-fluoro-6-(4-chloro-2-fluoro-3-methoxy-phenyl)pyridine-2-carboxylic acid]
Visual Weed Control (%) - 21 DAA ECHCG Obs (ECHCG; 4.38 gae/ha): 15% | Visual Weed Control (%) - 22 DAA ECHCG Obs (ECHCG; 4.38 gae/ha): 10% | Visual Weed Control ECHCG Obs (ECHCG; 4.38 gae/ha, 21 DAA): 15% | Visual Weed Control ECHCG Obs (ECHCG; 8 gae/ha, 19 DAA): 30% | Visual Weed Control (%) - 21 DAA ECHCG Obs (ECHCG; 8.75 gae/ha): 20% | Visual Weed Control (%) - 22 DAA ECHCG Obs (ECHCG; 8.75 gae/ha): 25% | Visual Weed Control ECHCG Obs (ECHCG; 8.75 gae/ha, 21 DAA): 20% | Visual Weed Control ECHCG Obs (ECHCG; 16 gae/ha, 19 DAA): 20% | Visual Weed Control (%) - 21 DAA ECHCG Obs (ECHCG; 17.5 gae/ha): 75% | Visual Weed Control (%) - 22 DAA ECHCG Obs (ECHCG; 17.5 gae/ha): 60% | Visual Weed Control ECHCG Obs (ECHCG; 17.5 gae/ha, 21 DAA): 75% | Visual Weed Control ECHCG Obs (ECHCG; 32 gae/ha, 19 DAA): 40% | Visual Weed Control (%) - 21 DAA CYPRO Obs (CYPRO; 4.38 gae/ha): 0% | Visual Weed Control CYPRO Obs (CYPRO; 4.38 gae/ha, 20 DAA): 0% | Visual Weed Control CYPRO Obs (CYPRO; 4.38 gae/ha, 21 DAA): 0% | Visual Weed Control CYPRO Obs (CYPRO; 8 gae/ha, 19 DAA): 50% | Visual Weed Control (%) - 20 DAA CYPRO Obs (CYPRO; 8.75 gae/ha): 20% and 30% | Visual Weed Control (%) - 21 DAA CYPRO Obs (CYPRO; 8.75 gae/ha): 30% | Visual Weed Control CYPRO Obs (CYPRO; 8.75 gae/ha, 20 DAA): 20% | Visual Weed Control CYPRO Obs (CYPRO; 8.75 gae/ha, 21 DAA): 30% | Visual Weed Control (%) - 20 DAA CYPRO Obs (CYPRO; 17.5 gae/ha): 95% | Visual Weed Control CYPRO Obs (CYPRO; 17.5 gae/ha, 20 DAA): 95%

CCCOCCN(C(=O)CCl)c1c(CC)cccc1CC [Pretilachlor, 2-chloro-N-(2,6-diethylphenyl)-N-(2-propoxyethyl)acetamide]
Visual Weed Control (%) - 20 DAA CYPRO Obs (CYPRO; 75 gai/ha): 0% | Visual Weed Control (%) - 20 DAA CYPRO Obs (CYPRO; 150 gai/ha): 0%
